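Step 1: Grow cells in 96-well plates. Step 2: Expose to compound for 48 hours at 5 concentrations. Step 3: Interpolate endpoints linearly; if unreached, use highest concentration. Here, GI50 denotes the concentration required for 50% inhibition of growth.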 The source made the active and inactive calls. Rule as the data show it: active = GI50 up to about 1.1 µM and inactive = higher.
Legend:
Assay in all cases: DTP human tumour cell line panel, 48 h
A498 = tested on: A498
ACHN = tested on: ACHN
HL-60 = tested on: HL-60
HOP-62 = tested on: HOP-62
HOP-92 = tested on: HOP-92
M14 = tested on: M14
Malme-3M = tested on: Malme-3M
NCI-H23 = tested on: NCI-H23
NCI-H460 = tested on: NCI-H460
OVCAR-3 = tested on: OVCAR-3
OVCAR-8 = tested on: OVCAR-8
PC-3 = tested on: PC-3
RPMI-8226 = tested on: RPMI-8226
SF-268 = tested on: SF-268
SF-539 = tested on: SF-539
SK-MEL-2 = tested on: SK-MEL-2
SK-MEL-5 = tested on: SK-MEL-5
SW-620 = tested on: SW-620
U-251 = tested on: U-251

C[C@]12CC[C@H](O)C[C@@H]1CC[C@@H]1[C@@H]2CC[C@]2(C)[C@@H](C3=CC(=O)OC3)CC[C@]12O
GI50 (A498): 4.5 µM (inactive) | GI50 (ACHN): 0.687 µM (active) | GI50 (HL-60): 2.88 µM (inactive) | GI50 (HOP-62): 1.6 µM (inactive) | GI50 (HOP-92): 5.42 µM (inactive) | GI50 (M14): 3.45 µM (inactive) | GI50 (Malme-3M): 2.16 µM (inactive) | GI50 (NCI-H23): 1.87 µM (inactive) | GI50 (NCI-H460): 0.673 µM (active) | GI50 (OVCAR-3): 3.12 µM (inactive) | GI50 (OVCAR-8): 3.08 µM (inactive) | GI50 (PC-3): 2.58 µM (inactive) | GI50 (RPMI-8226): 4.21 µM (inactive) | GI50 (SF-268): 1.75 µM (inactive) | GI50 (SF-539): 1.29 µM (inactive) | GI50 (SK-MEL-2): 3.33 µM (inactive) | GI50 (SK-MEL-5): 1.15 µM (inactive) | GI50 (SW-620): 3.51 µM (inactive) | GI50 (U-251): 3.73 µM (inactive)

CSc1nnnc2ccccc12
GI50 (A498): > 100 µM (inactive) | GI50 (ACHN): > 100 µM (inactive) | GI50 (HL-60): > 100 µM (inactive) | GI50 (HOP-62): > 100 µM (inactive) | GI50 (HOP-92): > 100 µM (inactive) | GI50 (M14): > 100 µM (inactive) | GI50 (Malme-3M): > 100 µM (inactive) | GI50 (NCI-H23): > 100 µM (inactive) | GI50 (NCI-H460): > 100 µM (inactive) | GI50 (OVCAR-3): > 100 µM (inactive) | GI50 (OVCAR-8): > 100 µM (inactive) | GI50 (PC-3): > 100 µM (inactive) | GI50 (RPMI-8226): > 100 µM (inactive) | GI50 (SF-268): > 100 µM (inactive) | GI50 (SF-539): > 100 µM (inactive) | GI50 (SK-MEL-2): > 100 µM (inactive) | GI50 (SK-MEL-5): > 100 µM (inactive) | GI50 (SW-620): > 100 µM (inactive) | GI50 (U-251): > 100 µM (inactive)

O=C1C(=C(I)I)c2ccccc2-c2ccccc21
GI50 (A498): 16.6 µM (inactive) | GI50 (ACHN): 2.32 µM (inactive) | GI50 (HL-60): 0.998 µM (active) | GI50 (HOP-62): 11.9 µM (inactive) | GI50 (HOP-92): 2.26 µM (inactive) | GI50 (M14): 3.02 µM (inactive) | GI50 (Malme-3M): 1.64 µM (inactive) | GI50 (NCI-H23): 5.07 µM (inactive) | GI50 (NCI-H460): 14.6 µM (inactive) | GI50 (OVCAR-3): 1.74 µM (inactive) | GI50 (OVCAR-8): 2.59 µM (inactive) | GI50 (PC-3): 3.71 µM (inactive) | GI50 (RPMI-8226): 0.53 µM (active) | GI50 (SF-268): 6.71 µM (inactive) | GI50 (SF-539): 1.34 µM (inactive) | GI50 (SK-MEL-2): 6.31 µM (inactive) | GI50 (SK-MEL-5): 5.37 µM (inactive) | GI50 (SW-620): 1.63 µM (inactive) | GI50 (U-251): 5.45 µM (inactive)

O=[N+]([O-])c1ccc2nc(-c3ccccn3)c(-c3ccccn3)nc2c1
GI50 (A498): > 100 µM (inactive) | GI50 (ACHN): 80 µM (inactive) | GI50 (HL-60): 28 µM (inactive) | GI50 (HOP-62): 35.1 µM (inactive) | GI50 (HOP-92): > 100 µM (inactive) | GI50 (M14): 66.7 µM (inactive) | GI50 (Malme-3M): 61.2 µM (inactive) | GI50 (NCI-H23): > 100 µM (inactive) | GI50 (NCI-H460): 45.7 µM (inactive) | GI50 (OVCAR-3): 29.4 µM (inactive) | GI50 (OVCAR-8): 94 µM (inactive) | GI50 (PC-3): 38.5 µM (inactive) | GI50 (RPMI-8226): > 100 µM (inactive) | GI50 (SF-268): > 100 µM (inactive) | GI50 (SF-539): 45.9 µM (inactive) | GI50 (SK-MEL-2): > 100 µM (inactive) | GI50 (SK-MEL-5): 24.4 µM (inactive) | GI50 (SW-620): 41.9 µM (inactive) | GI50 (U-251): > 100 µM (inactive)

O=C1C(Cl)=CC2(C=C1Cl)CCNC1=C2C(=O)c2nc[nH]c2C1=O
GI50 (A498): 36.6 µM (inactive) | GI50 (ACHN): > 100 µM (inactive) | GI50 (HL-60): 24.4 µM (inactive) | GI50 (HOP-62): > 100 µM (inactive) | GI50 (HOP-92): 42.4 µM (inactive) | GI50 (M14): 39 µM (inactive) | GI50 (Malme-3M): 24.3 µM (inactive) | GI50 (NCI-H23): 27.2 µM (inactive) | GI50 (NCI-H460): 40.3 µM (inactive) | GI50 (OVCAR-3): 32.3 µM (inactive) | GI50 (OVCAR-8): 32.9 µM (inactive) | GI50 (PC-3): 35.3 µM (inactive) | GI50 (RPMI-8226): 30.5 µM (inactive) | GI50 (SF-268): 54.6 µM (inactive) | GI50 (SF-539): 33.5 µM (inactive) | GI50 (SK-MEL-2): 17.3 µM (inactive) | GI50 (SK-MEL-5): 16.6 µM (inactive) | GI50 (SW-620): 26.9 µM (inactive) | GI50 (U-251): 26.5 µM (inactive)

CN(C)/C=N/c1c2c(nc3ccccc13)CCCC2
GI50 (A498): 49.9 µM (inactive) | GI50 (ACHN): > 100 µM (inactive) | GI50 (HL-60): 31.1 µM (inactive) | GI50 (HOP-62): > 100 µM (inactive) | GI50 (HOP-92): 33.1 µM (inactive) | GI50 (M14): > 100 µM (inactive) | GI50 (Malme-3M): > 100 µM (inactive) | GI50 (NCI-H23): 50.7 µM (inactive) | GI50 (OVCAR-3): 38.6 µM (inactive) | GI50 (OVCAR-8): 50.1 µM (inactive) | GI50 (PC-3): 38.5 µM (inactive) | GI50 (RPMI-8226): 53.3 µM (inactive) | GI50 (SF-268): > 100 µM (inactive) | GI50 (SF-539): 96.4 µM (inactive) | GI50 (SK-MEL-2): > 100 µM (inactive) | GI50 (SK-MEL-5): > 100 µM (inactive) | GI50 (U-251): > 100 µM (inactive)

COC(=O)c1c2c(cc3c1CC1(Cc4cc5c(cc4C1)CCCC5)C3)CCCC2
GI50 (A498): > 100 µM (inactive) | GI50 (ACHN): > 100 µM (inactive) | GI50 (HL-60): 80.4 µM (inactive) | GI50 (HOP-62): > 100 µM (inactive) | GI50 (HOP-92): > 100 µM (inactive) | GI50 (M14): > 100 µM (inactive) | GI50 (Malme-3M): > 100 µM (inactive) | GI50 (NCI-H23): > 100 µM (inactive) | GI50 (OVCAR-3): > 100 µM (inactive) | GI50 (OVCAR-8): > 100 µM (inactive) | GI50 (PC-3): > 100 µM (inactive) | GI50 (RPMI-8226): > 100 µM (inactive) | GI50 (SF-539): > 100 µM (inactive) | GI50 (SK-MEL-2): > 100 µM (inactive) | GI50 (SK-MEL-5): > 100 µM (inactive) | GI50 (U-251): > 100 µM (inactive)

CCCCn1c(C)c2c(c1C)C(=O)N(CCN1CCN(c3ccccc3Cl)CC1)C2=O
GI50 (A498): 39 µM (inactive) | GI50 (ACHN): 38.1 µM (inactive) | GI50 (HL-60): 22.1 µM (inactive) | GI50 (HOP-62): 29 µM (inactive) | GI50 (HOP-92): 25.4 µM (inactive) | GI50 (M14): 21.9 µM (inactive) | GI50 (Malme-3M): 21 µM (inactive) | GI50 (NCI-H23): 27.2 µM (inactive) | GI50 (NCI-H460): 35.5 µM (inactive) | GI50 (OVCAR-3): 50.7 µM (inactive) | GI50 (OVCAR-8): 44.9 µM (inactive) | GI50 (PC-3): 28.4 µM (inactive) | GI50 (RPMI-8226): 24.7 µM (inactive) | GI50 (SF-268): 17.6 µM (inactive) | GI50 (SF-539): 17.9 µM (inactive) | GI50 (SK-MEL-2): 20 µM (inactive) | GI50 (SK-MEL-5): 19.9 µM (inactive) | GI50 (SW-620): 37.5 µM (inactive) | GI50 (U-251): 36.5 µM (inactive)
